One data set relates to MDCKII-LE cells. Nature of the data set: MDCKII-LE permeability assay. Type of data set: in vitro ADME. Conditions: MDCKII-LE; A → B <5 × 10^−6 cm/s low, 5–15 moderate, >15 high. The method, then: (§1) Permeability and transporter substrate assays were performed as previously published (Feng et al., [2008]; Callegari et al., [2011]; Di et al., [2011]). Permeability assays were conducted in MDCKII-LE cells, which were generated by isolation of a subpopulation of cells with low expression of endogenous P-gp (Feng et al., [2008]; Callegari et al., [2011]; Di et al., [2011]). The use of MDCKII-LE cells are used to measure the passive permeability of compounds in place of MDCK wild-type or Caco-2 cells since both MDCK wild-type and Caco-2 cells are known to have some level of endogenous transporter expression which can affect the permeability measurement. P-gp efflux was determined in MDR1-MDCK cells and BCRP efflux was measured in BCRP-MDCKII-LE cells.
(§2) MDCKII-LE, MDR1-MDCK, and BCRP-MDCKII-LE transwell assays were performed to determine the permeability and transporter efflux of PF-309 in vitro (Table 1). The permeability of PF-309 was determined to be 0.9 × 10^−6 cm/s in MDCKII-LE cells (mean of two replicates is presented). As previously described (Feng et al., [2008]), in MDCKII-LE cells a compound with a donor to receiver (A → B) flux of <5 × 10^−6 cm/s is classified as having low permeability. Compounds with A → B flux of 5–15 × 10^−6 cm/s are classified as moderately permeable and compounds >15 × 10^−6cm/s are considered to be highly permeable.

Data set [1] in a line: MDCKII-LE permeability assay. Type of data set: in vitro ADME. Conditions: dog, MDCK; MDCKII-LE cells, mean of two replicates. The method, then: as §1, §2
Data set [2] relates to SW480 cell line xenograft. Nature of the data set: CRC cell line xenograft efficacy, SW480. Format: in vivo, mice. Particulars: 25 mg/kg orally twice daily, 14–28 days, end of study tumor volumes. The method, then:
(§3) For cell line xenografts, CRC cells were harvested in exponential phase growth and resuspended in a 1:1 mixture of serum-free RPMI 1640 and Matrigel (BD Biosciences). Five to ten million cells per mouse were injected subcutaneously into the flank using a 23-gauge needle. Mice were monitored daily for signs of toxicity and were weighed twice weekly. Tumor size was evaluated twice per week by caliper measurements using the following formula: tumor volume = length × width^2 × 0.52. When tumors reached 200–300 mm^3 mice were randomized into two groups with at least 10 tumors per group. Mice were then treated for 14–28 days (until control tumor volume reach ∼1500 mm^3) with either vehicle control (0.5% methylcellulose), or PF-3758309 (25 mg/kg) twice daily by oral gavage.
(§4) Human tumor xenograft models were used to evaluate the efficacy of PF-309 in vivo. Eleven different CRC cell line tumor xenografts were treated with 25 mg/kg PF-309 twice daily by oral gavage for 14–28 days (until control tumor volumes reached ∼1500 mm^3). Tumor volumes were measured throughout the study and the % growth inhibition was calculated from the average end of study tumor volumes by:
(§5) % Growth Inhibition= (average control volume−average treated volume)/average control volume×100%

Another data set has as its system SW1463. Nature of the data set: Cell proliferation assay, SW1463. Format: cell-based. Particulars: Homo sapiens; SW1463, PF-309 alone, 72 h; 1 uM was the maximum concentration used. The method, then: Cytotoxic/proliferation effects were determined using the sulforhodamine B (SRB) assay (Skehan et al., [1990]) or by resazurin. Briefly, cells in logarithmic growth phase were transferred to 96 well flat bottom plates with lids. One-hundred microliter cell suspensions containing 1500–5000 viable cells were plated into each well and incubated overnight prior to exposure with increasing concentrations of PF-309 for 3–5 days, dependent upon cell type. Media was removed and cells were fixed with cold 10% trichloroacetic acid for 30 min at 4°C. Cells were then washed with water and stained with 0.4% SRB (Fisher Sci., Pittsburgh, PA, USA) for 30 min at room temperature, washed again with 1% acetic acid, followed by stain solubilization with 10 mM tris at room temperature. The plate was then read on a plate reader (Biotek Synergy 2, Winooski, VT, USA) set at an absorbance wavelength of 565 nm. Cell proliferation curves were derived from the raw absorbance (OD) data.
Since PF-309 appeared to be a strong P-gp and BCRP substrates, we sought to evaluate if the transporters influenced sensitivity in vitro. We evaluated the sensitivity of CRC cell lines to PF-309 treatment in a panel of 27 lines. Cells were exposed to PF-309 at a range of concentrations for 72 h and cell content measured by SRB assay (see Pitts et al., [2013]). […]

Another data set relates to SW48 cell line xenograft. Description: CRC cell line xenograft efficacy, SW48. Format: in vivo, mice. Conditions: 25 mg/kg orally twice daily, 14–28 days, end of study tumor volumes. The method, then: as §3, §4, §5
Another data set concerns CRC cell lines. Description: Proliferation assays with and without P-gp inhibitor CP-100356, subset of CRC cell lines. Format: cell-based, human. Particulars: 0.625 μM CP-100356; five out of the six CRC cell lines.

Where only a bound is given, the exact number is not on record here.

Experimental for CRC cell lines: Cytotoxic/proliferation effects were determined using the sulforhodamine B (SRB) assay (Skehan et al., [1990]) or by resazurin. Briefly, cells in logarithmic growth phase were transferred to 96 well flat bottom plates with lids. […] Media was removed and cells were fixed with cold 10% trichloroacetic acid for 30 min at 4°C. Cells were then washed with water and stained with 0.4% SRB (Fisher Sci., Pittsburgh, PA, USA) for 30 min at room temperature, washed again with 1% acetic acid, followed by stain solubilization with 10 mM tris at room temperature. The plate was then read on a plate reader (Biotek Synergy 2, Winooski, VT, USA) set at an absorbance wavelength of 565 nm. Cell proliferation curves were derived from the raw absorbance (OD) data.

For `Cc1nc(Nc2n[nH]c3c2CN(C(=O)N[C@H](CN(C)C)c2ccccc2)C3(C)C)c2sccc2n1` [PF-309], in the data set on MDCKII-LE cells, the permeability classification result is reported as “poorly permeable”. In data set [1], this compound gave a Papp A→B of 0.9 ×10⁻⁶ cm/s. Also, the “% Growth inhibition” value was found to be 42% in data set [2] and 45% in the data set with SW48 cell line xenograft. In addition, in the data set with SW1463, the concentration for half-maximal inhibition (IC50) was more than 1000 nM. The “fold change in the IC50 of PF-309 caused by CP-100356” value with CRC cell lines is reported as 4–100 fold.

As a reminder, the Papp A→B is how fast a substance crosses the layer from the apical side. Low values mean slow passage, high ones fast passage. A word on the IC50: it is the point on the concentration scale where inhibition reaches its midpoint.
